For 42 compounds, Fluorescence results are on record in ChEMBL document CHEMBL1134045, “Inhibition of BCRP-mediated drug efflux by fumitremorgin-type indolyl diketopiperazines” (Bioorg Med Chem Lett, 2001).

One data set has as its system T6400. In words: Relative cellular accumulation of mitoxantrone determined with the compound at 2.5 uM and mitoxantrone at 10 uM on T6400 mouse cell line. In kind it is functional.
For another data set, the system named is AIK-T8. In words: Ability to inhibit […] activity at 2.5 uM and 200 ng/ml PSC833 in a mitoxantrone accumulation assay on T8 human cell line. The note with it: aik-t8, 2.5 µM. In kind it is ADME, cell-based.

For the compound `CCCCCC1c2[nH]c3ccccc3c2C[C@H]2C(=O)NC(N3CCCC3)C(=O)N12` (stereo partly drawn), the values for the Fluorescence in the data set with T6400 and in the data set on AIK-T8 were 119% and 370%, respectively.

For the compound `CC(C)CC1c2[nH]c3ccccc3c2C[C@H]2C(=O)NC(COC(C)(C)C)C(=O)N12` (stereo partly drawn), the Fluorescence stood at 216% with T6400 and 522% with AIK-T8.

`CC1NC(=O)[C@@H]2Cc3c([nH]c4ccccc34)C(c3ccccc3)N2C1=O` (stereo partly drawn): the Fluorescence in the data set with T6400 stood at 53%; in the data set on AIK-T8, 181%.

For the compound `CCC1c2[nH]c3ccccc3c2C[C@H]2C(=O)NC(Cc3c[nH]c4ccccc34)C(=O)N12` (stereo partly drawn), the Fluorescence was 96% in the data set with T6400 and 354% in the data set with AIK-T8.

Take `CCC1c2[nH]c3ccccc3c2C[C@H]2C(=O)NC(CCCCNC(=O)OC(C)(C)C)C(=O)N12` (stereo partly drawn): the Fluorescence was 74% in the data set with T6400 and 313% in the data set on AIK-T8.

In the case of `O=C1NC(Cc2ccccc2)C(=O)N2C(C3CCCCC3)c3[nH]c4ccccc4c3C[C@@H]12` (stereo partly drawn), the Fluorescence in the data set with T6400 was 91%.

For the compound `CC1NC(=O)[C@@H]2Cc3c([nH]c4ccccc34)C(C3CCCCC3)N2C1=O` (stereo partly drawn), the Fluorescence in the data set on T6400 is 74%; in the data set with AIK-T8 it was 268%.

As for `CC(C)C1c2[nH]c3ccccc3c2C[C@H]2C(=O)NC(CCCCNC(=O)OC(C)(C)C)C(=O)N12` (stereo partly drawn), the figures for the Fluorescence in the data set with T6400 and with AIK-T8 were 133% and 452%, respectively.

For the compound `CC1NC(=O)[C@@H]2Cc3c([nH]c4ccccc34)C(C(C)C)N2C1=O` (stereo partly drawn), the Fluorescence in the data set with T6400 is 49%; with AIK-T8, 156%.

Turning to `CCC1c2[nH]c3ccccc3c2C[C@H]2C(=O)NC(CCC(=O)OC(C)(C)C)C(=O)N12` (stereo partly drawn), the Fluorescence was 80% in the data set on T6400 and 313% in the data set with AIK-T8.

In the case of `O=C1NC(N2CCCC2)C(=O)N2C(C3CCCCC3)c3[nH]c4ccccc4c3C[C@@H]12` (stereo partly drawn), the Fluorescence in the data set with T6400 stood at 85%; with AIK-T8, 313%.

In the case of `CCCCCC1c2[nH]c3ccccc3c2C[C@H]2C(=O)NC(CCCCNC(=O)OC(C)(C)C)C(=O)N12` (stereo partly drawn), the values for the Fluorescence with T6400 and in the data set on AIK-T8 were 302% and 599%, respectively.

For `O=C1NC(Cc2c[nH]c3ccccc23)C(=O)N2C(C3CCCCC3)c3[nH]c4ccccc4c3C[C@@H]12` (stereo partly drawn), the Fluorescence with T6400 is 158%; in the data set on AIK-T8, 410%.

Turning to `CC(C)C1c2[nH]c3ccccc3c2C[C@H]2C(=O)NC(COC(C)(C)C)C(=O)N12` (stereo partly drawn), the Fluorescence in the data set with T6400 is 93%; with AIK-T8 it was 334%.

`CCCCCC1c2[nH]c3ccccc3c2C[C@H]2C(=O)NC(COC(C)(C)C)C(=O)N12` (stereo partly drawn): the figures for the Fluorescence in the data set with T6400 and in the data set on AIK-T8 were 275% and 607%, respectively.

In the case of `CC(C)(C)OC(=O)NCCCCC1NC(=O)[C@@H]2Cc3c([nH]c4ccccc34)C(c3ccccc3)N2C1=O` (stereo partly drawn), the results for the Fluorescence with T6400 and in the data set on AIK-T8 were 85% and 305%, respectively.

Consider `CCC1c2[nH]c3ccccc3c2C[C@H]2C(=O)NC(N3CCCC3)C(=O)N12` (stereo partly drawn), for which the Fluorescence in the data set on T6400 was determined as 42%; in the data set on AIK-T8, 119%.

Regarding `CCC1c2[nH]c3ccccc3c2C[C@H]2C(=O)NC(COC(C)(C)C)C(=O)N12` (stereo partly drawn), the results for the Fluorescence in the data set on T6400 and with AIK-T8 were 71% and 225%, respectively.

As for `CCC1c2[nH]c3ccccc3c2C[C@H]2C(=O)NC(C)C(=O)N12` (stereo partly drawn), the Fluorescence with T6400 was 43%; in the data set on AIK-T8, 114%.

`CC(C)C1c2[nH]c3ccccc3c2C[C@H]2C(=O)NC(Cc3c[nH]c4ccccc34)C(=O)N12` (stereo partly drawn): the Fluorescence turned out to be 96% with T6400 and 310% with AIK-T8.

Regarding `CC(C)(C)OC(=O)CCC1NC(=O)[C@@H]2Cc3c([nH]c4ccccc34)C(c3ccccc3)N2C1=O` (stereo partly drawn), the Fluorescence worked out at 100% in the data set with T6400 and 313% with AIK-T8.

For `O=C1NC(Cc2c[nH]c3ccccc23)C(=O)N2C(c3ccccc3)c3[nH]c4ccccc4c3C[C@@H]12` (stereo partly drawn), the Fluorescence in the data set on T6400 was 125%; in the data set with AIK-T8, 376%.

With `CCCCCC1c2[nH]c3ccccc3c2C[C@H]2C(=O)NC(Cc3c[nH]c4ccccc34)C(=O)N12` (stereo partly drawn), the results for the Fluorescence in the data set on T6400 and in the data set on AIK-T8 were 242% and 601%, respectively.

As to `CC(C)(C)OCC1NC(=O)[C@@H]2Cc3c([nH]c4ccccc34)C(c3ccccc3)N2C1=O` (stereo partly drawn), the Fluorescence came to 106% in the data set on T6400 and 339% in the data set on AIK-T8.

On to `CCCCCC1c2[nH]c3ccccc3c2C[C@H]2C(=O)NC(Cc3ccccc3)C(=O)N12` (stereo partly drawn), for which the Fluorescence in the data set on T6400 turned out to be 199%; in the data set on AIK-T8, 514%.

With `CC(C)CC1c2[nH]c3ccccc3c2C[C@H]2C(=O)NC(CCC(=O)OC(C)(C)C)C(=O)N12` (stereo partly drawn), the Fluorescence in the data set on T6400 came out at 348%; with AIK-T8 it was 711%.

For `CC(C)(C)OC(=O)CCC1NC(=O)[C@@H]2Cc3c([nH]c4ccccc34)C(C3CCCCC3)N2C1=O` (stereo partly drawn), the Fluorescence in the data set on T6400 was 252%; with AIK-T8 it was 638%.

As for `O=C1NC(Cc2ccccc2)C(=O)N2C(c3ccccc3)c3[nH]c4ccccc4c3C[C@@H]12` (stereo partly drawn), the Fluorescence in the data set with T6400 is 112%; in the data set on AIK-T8 it was 376%.

As to `CCCCCC1c2[nH]c3ccccc3c2C[C@H]2C(=O)NC(C)C(=O)N12` (stereo partly drawn), the Fluorescence is 175% in the data set on T6400 and 436% in the data set with AIK-T8.

On to `CC(C)CC1c2[nH]c3ccccc3c2C[C@H]2C(=O)NC(Cc3c[nH]c4ccccc34)C(=O)N12` (stereo partly drawn), for which the Fluorescence in the data set with T6400 is 279%; with AIK-T8, 535%.

As for `CCC1c2[nH]c3ccccc3c2C[C@H]2C(=O)NC(Cc3ccccc3)C(=O)N12` (stereo partly drawn), the figures for the Fluorescence in the data set on T6400 and in the data set with AIK-T8 were 63% and 228%, respectively.

Take `CC(C)C1c2[nH]c3ccccc3c2C[C@H]2C(=O)NC(CCC(=O)OC(C)(C)C)C(=O)N12` (stereo partly drawn): the Fluorescence came to 149% in the data set with T6400 and 381% in the data set with AIK-T8.

Take `CC(C)C1c2[nH]c3ccccc3c2C[C@H]2C(=O)NC(Cc3ccccc3)C(=O)N12` (stereo partly drawn): the Fluorescence was 104% in the data set on T6400 and 359% in the data set with AIK-T8.

As to `CC(C)CC1c2[nH]c3ccccc3c2C[C@H]2C(=O)NC(CCCCNC(=O)OC(C)(C)C)C(=O)N12` (stereo partly drawn), the figures for the Fluorescence with T6400 and in the data set on AIK-T8 were 305% and 649%, respectively.

Turning to `CC(C)CC1c2[nH]c3ccccc3c2C[C@H]2C(=O)NC(N3CCCC3)C(=O)N12` (stereo partly drawn), the figures for the Fluorescence in the data set on T6400 and in the data set on AIK-T8 were 56% and 187%, respectively.

As to `CC(C)(C)OC(=O)NCCCCC1NC(=O)[C@@H]2Cc3c([nH]c4ccccc34)C(C3CCCCC3)N2C1=O` (stereo partly drawn), the values for the Fluorescence with T6400 and in the data set on AIK-T8 were 278% and 629%, respectively.

With `CC(C)CC1c2[nH]c3ccccc3c2C[C@H]2C(=O)NC(Cc3ccccc3)C(=O)N12` (stereo partly drawn), the Fluorescence in the data set with T6400 is 191%; in the data set with AIK-T8, 431%.

Regarding `CC(C)(C)OCC1NC(=O)[C@@H]2Cc3c([nH]c4ccccc34)C(C3CCCCC3)N2C1=O` (stereo partly drawn), the Fluorescence in the data set with T6400 is 276%; in the data set on AIK-T8, 672%.

With `CCCCCC1c2[nH]c3ccccc3c2C[C@H]2C(=O)NC(CCC(=O)OC(C)(C)C)C(=O)N12` (stereo partly drawn), the Fluorescence was found to be 283% in the data set on T6400 and 592% with AIK-T8.

For `O=C1NC(N2CCCC2)C(=O)N2C(c3ccccc3)c3[nH]c4ccccc4c3C[C@@H]12` (stereo partly drawn), the Fluorescence turned out to be 54% in the data set with T6400 and 176% in the data set on AIK-T8.

Consider `CC(C)C1c2[nH]c3ccccc3c2C[C@H]2C(=O)NC(N3CCCC3)C(=O)N12` (stereo partly drawn), for which the values for the Fluorescence with T6400 and with AIK-T8 were 45% and 136%, respectively.

As for `CC(C)CC1c2[nH]c3ccccc3c2C[C@H]2C(=O)NC(C)C(=O)N12` (stereo partly drawn), the values for the Fluorescence in the data set on T6400 and with AIK-T8 were 80% and 333%, respectively.
